Measured values taken from patent publication US10787450B2 (BRISTOL-MYERS SQUIBB COMPANY, priority 2016, dated 2020).

Molecular target: ROCK2 (Homo sapiens (Human), UniProt O75116)
Experiment: ROCK2 kinase inhibition assay (FITC peptide substrate, LABCHIP 3000 Reader)
Assay type: biochemical
Settings: 5 μM ATP, 1.5 μM peptide substrate
Summary of the method: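 Reaction in 20 mM HEPES pH 7.5, 20 mM MgCl2, 0.015% Brij-35, 4 mM DTT with 5 μM ATP and 1.5 μM FITC-AHA-AKRRRLSSLRA-OH peptide, started with Rho kinase, DMSO <2%. EDTA-stopped; phospho and non-phospho peptide separated by mobility shift. IC50 from dose-response curve fit.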

ROCK2, sequence (O75116 whole entry, species assumed): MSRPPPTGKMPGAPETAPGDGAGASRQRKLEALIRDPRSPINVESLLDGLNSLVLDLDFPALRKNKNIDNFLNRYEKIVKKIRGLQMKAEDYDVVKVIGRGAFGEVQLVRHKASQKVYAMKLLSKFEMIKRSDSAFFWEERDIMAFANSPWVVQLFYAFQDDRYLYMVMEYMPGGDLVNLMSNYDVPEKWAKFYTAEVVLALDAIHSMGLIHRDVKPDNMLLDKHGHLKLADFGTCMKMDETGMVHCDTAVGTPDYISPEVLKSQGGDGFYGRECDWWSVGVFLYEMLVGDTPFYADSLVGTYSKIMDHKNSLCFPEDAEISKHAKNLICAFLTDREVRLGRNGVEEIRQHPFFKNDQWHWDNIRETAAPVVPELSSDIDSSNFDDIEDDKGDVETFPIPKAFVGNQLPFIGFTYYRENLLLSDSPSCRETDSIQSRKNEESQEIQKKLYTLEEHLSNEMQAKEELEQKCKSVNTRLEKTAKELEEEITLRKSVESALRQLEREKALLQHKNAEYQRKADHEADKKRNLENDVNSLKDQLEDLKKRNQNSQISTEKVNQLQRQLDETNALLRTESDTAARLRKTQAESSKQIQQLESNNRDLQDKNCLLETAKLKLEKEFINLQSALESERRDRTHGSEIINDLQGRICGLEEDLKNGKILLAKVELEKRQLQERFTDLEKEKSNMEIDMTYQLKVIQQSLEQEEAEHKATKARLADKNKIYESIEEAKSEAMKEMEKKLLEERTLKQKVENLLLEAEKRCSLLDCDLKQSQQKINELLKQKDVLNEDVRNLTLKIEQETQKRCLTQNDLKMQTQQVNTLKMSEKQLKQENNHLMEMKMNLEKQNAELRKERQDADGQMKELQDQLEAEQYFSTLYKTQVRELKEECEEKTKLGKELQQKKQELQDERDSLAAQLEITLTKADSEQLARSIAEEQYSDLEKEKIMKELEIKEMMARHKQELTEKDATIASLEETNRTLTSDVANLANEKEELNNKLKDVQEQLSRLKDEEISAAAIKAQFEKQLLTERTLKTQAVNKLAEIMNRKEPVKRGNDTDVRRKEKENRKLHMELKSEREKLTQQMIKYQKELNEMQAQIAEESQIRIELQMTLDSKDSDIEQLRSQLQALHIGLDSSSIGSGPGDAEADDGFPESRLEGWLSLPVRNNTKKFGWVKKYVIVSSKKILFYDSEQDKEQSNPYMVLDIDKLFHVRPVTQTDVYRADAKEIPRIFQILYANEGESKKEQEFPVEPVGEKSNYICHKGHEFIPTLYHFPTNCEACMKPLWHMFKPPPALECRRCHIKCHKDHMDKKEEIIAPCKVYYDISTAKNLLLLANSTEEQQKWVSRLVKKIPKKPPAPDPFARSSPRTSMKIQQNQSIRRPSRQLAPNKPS

Row | IC50 [nM] | Compound
1 | 3 to 30 | COc1nc(N2CC3(CCN(C(=O)CC(C)c4ccccc4)CC3)N(Cc3cccc(F)c3C)C2=O)ccc1-c1cn[nH]c1 (stereo not drawn) [Example 224, 1-(3-fluoro-2-methylbenzyl)-3-(6-methoxy-5-(1H-pyrazol-4-yl)pyridin-2-yl)-8-(3-phenylbutanoyl)-1,3,8-triazaspiro[4.5]decan-2-one]
2 | < 3 | COc1nc(N2CC3(CCN(C(=O)CN(C)C)CC3)N(Cc3cccc(F)c3C)C2=O)ccc1-c1cn[nH]c1 [Example 225, 8-(2-(dimethylamino)acetyl)-1-(3-fluoro-2-methylbenzyl)-3-(6-methoxy-5-(1H-pyrazol-4-yl)pyridin-2-yl)-1,3,8-triazaspiro[4.5]decan-2-one]
3 | < 3 | COCC(=O)N1CCC2(CC1)CN(c1ccc(-c3cn[nH]c3)c(OC)n1)C(=O)N2Cc1cccc(F)c1C [Example 226, 1-(3-fluoro-2-methylbenzyl)-3-(6-methoxy-5-(1H-pyrazol-4-yl)pyridin-2-yl)-8-(2-methoxyacetyl)-1,3,8-triazaspiro[4.5]decan-2-one]
4 | < 3 | COc1nc(N2CC3(CCN(C(=O)CCN4CCCC4=O)CC3)N(Cc3cccc(F)c3C)C2=O)ccc1-c1cn[nH]c1 [Example 227, 1-(3-fluoro-2-methylbenzyl)-3-(6-methoxy-5-(1H-pyrazol-4-yl)pyridin-2-yl)-8-(3-(2-oxopyrrolidin-1-yl)propanoyl)-1,3,8-triazaspiro[4.5]decan-2-one]
5 | < 3 | COc1nc(N2CC3(CCN(C(=O)C(C)(C)CO)CC3)N(Cc3cccc(F)c3C)C2=O)ccc1-c1cn[nH]c1 [Example 228, 1-(3-fluoro-2-methylbenzyl)-8-(3-hydroxy-2,2-dimethylpropanoyl)-3-(6-methoxy-5-(1H-pyrazol-4-yl)pyridin-2-yl)-1,3,8-triazaspiro[4.5]decan-2-one]
6 | < 3 | COc1nc(N2CC3(CCN(C(=O)CO)CC3)N(Cc3cccc(F)c3C)C2=O)ccc1-c1cn[nH]c1 [Example 229, 1-(3-fluoro-2-methylbenzyl)-8-(2-hydroxyacetyl)-3-(6-methoxy-5-(1H-pyrazol-4-yl)pyridin-2-yl)-1,3,8-triazaspiro[4.5]decan-2-one]
7 | < 3 | COc1nc(N2CC3(CCN(C(=O)C(C)(C)O)CC3)N(Cc3cccc(F)c3C)C2=O)ccc1-c1cn[nH]c1 [Example 230, 1-(3-fluoro-2-methylbenzyl)-8-(2-hydroxy-2-methylpropanoyl)-3-(6-methoxy-5-(1H-pyrazol-4-yl)pyridin-2-yl)-1,3,8-triazaspiro[4.5]decan-2-one]
8 | < 3 | COc1cccc(CN2C(=O)N(c3ccc(-c4cn[nH]c4)cc3)CC23CCN(CC2CCC(F)(F)CC2)CC3)c1 [Example 231, 3-(4-(1H-pyrazol-4-yl)phenyl)-8-((4,4-difluorocyclohexyl)methyl)-1-(3-methoxybenzyl)-1,3,8-triazaspiro[4.5]decan-2-one]
9 | < 3 | COc1cccc(CN2C(=O)N(c3ccc(-c4cn[nH]c4)cc3)CC23CCN(CC2CCC2)CC3)c1 [Example 232, 3-(4-(1H-pyrazol-4-yl)phenyl)-8-(cyclobutyl-methyl)-1-(3-methoxy-benzyl)-1,3,8-triazaspiro [4.5]decan-2-one]
10 | < 3 | COc1cccc(CN2C(=O)N(c3ccc(-c4cn[nH]c4)cc3)CC23CCN(CC2CCOCC2)CC3)c1 [Example 233, 3-(4-(1H-pyrazol-4-yl)phenyl)-1-(3-methoxy-benzyl)-8-((tetrahydro-2H-pyran-4-yl)methyl)-1,3,8-triazaspiro [4.5]decan-2-one]
11 | < 3 | COc1cccc(CN2C(=O)N(c3ccc(-c4cn[nH]c4)cc3)CC23CCN(S(C)(=O)=O)CC3)c1 [Example 234, 3-(4-(1H-pyrazol-4-yl)phenyl)-1-(3-methoxybenzyl)-8-(methylsulfonyl)-1,3,8-triazaspiro[4.5]decan-2-one]
12 | < 3 | COc1cccc(CN2C(=O)N(c3ccc(-c4cn[nH]c4)cc3)CC23CCN(C2COC2)CC3)c1 [Example 235, 3-(4-(1H-pyrazol-4-yl)phenyl)-1-(3-methoxybenzyl)-8-(oxetan-3-yl)-1,3,8-triazaspiro[4.5]decan-2-one]
13 | < 3 | COc1cc(F)cc(CN2C(=O)N(c3ccc(-c4cn[nH]c4)cc3)CC23CCN(C2COC2)CC3)c1 [Example 236, 3-(4-(1H-pyrazol-4-yl)phenyl)-1-(3-fluoro-5-methoxy-benzyl)-8-(oxetan-3-yl)-1,3,8-triazaspiro [4.5]decan-2-one]
14 | < 3 | COc1cccc(CN2C(=O)N(c3ccc(-c4cn[nH]c4)cn3)CC23CCN(C2COC2)CC3)c1 [Example 237, 3-(5-(1H-pyrazol-4-yl)pyridin-2-yl)-1-(3-methoxy-benzyl)-8-(oxetan-3-yl)-1,3,8-triazaspiro [4.5]decan-2-one]
15 | < 3 | COc1cccc(CN2C(=O)N(c3ccc(-c4cn[nH]c4)c(OC)n3)CC23CCN(C2COC2)CC3)c1 [Example 238, 3-(6-methoxy-5-(1H-pyrazol-4-yl)pyridin-2-yl)-1-(3-methoxy-benzyl)-8-(oxetan-3-yl)-1,3,8-triazaspiro [4.5]decan-2-one]
16 | < 3 | COc1nc(N2CC3(CCN(C4COC4)CC3)N(Cc3cccc(F)c3C)C2=O)ccc1-c1cn[nH]c1 [Example 239, 1-(3-fluoro-2-methyl-benzyl)-3-(6-methoxy-5-(1H-pyrazol-4-yl)pyridin-2-yl)-8-(oxetan-3-yl)-1,3,8-triazaspiro [4.5]decan-2-one]
17 | 30 to 250 | COc1cccc(NC2C(=O)N(c3ccc(-c4cn[nH]c4)cc3)CC23CN(C(=O)OC(C)(C)C)C3)c1 (stereo not drawn) [Example 240, tert-butyl 6-(4-(1H-pyrazol-4-yl)phenyl)-8-((3-methoxyphenyl)amino)-7-oxo-2,6-diazaspiro[3.4]octane-2-carboxylate]
18 | 250 to 3000 | COc1cccc(NC2C(=O)N(c3ncc(-c4cn[nH]c4)c(OC)n3)CC23CCN(C(=O)OC(C)(C)C)CC3)c1 (stereo not drawn) [Example 241, tert-butyl 2-(4-methoxy-5-(1H-pyrazol-4-yl)pyrimidin-2-yl)-4-((3-methoxyphenyl)amino)-3-oxo-2,8-diazaspiro[4.5]decane-8-carboxylate]
19 | 250 to 3000 | COc1cccc(NC2C(=O)N(c3ncc(-c4cn[nH]c4)c(OC)n3)CC23CCN(C(=O)c2cnn4ccccc24)CC3)c1 (stereo not drawn) [Example 243, 2-(4-methoxy-5-(1H-pyrazol-4-yl)pyrimidin-2-yl)-4-((3-methoxyphenyl)amino)-8-(pyrazolo[1,5-a]pyridine-3-carbonyl)-2,8-diazaspiro[4.5]decan-3-one]
20 | 250 to 3000 | COc1cccc(NC2C(=O)N(c3ccc(-c4cn[nH]c4)cc3)CC23CN(C(C)=O)C3)c1 (stereo not drawn) [Example 244, 6-(4-(1H-pyrazol-4-yl)phenyl)-2-acetyl-8-((3-methoxy-phenyl)amino)-2,6-diazaspiro [3.4]octan-7-one]
21 | 250 to 3000 | COc1cccc(NC2C(=O)N(c3ccc(-c4cn[nH]c4)cc3)CC23CN(C(=O)C2COC2)C3)c1 (stereo not drawn) [Example 245, 6-(4-(1H-pyrazol-4-yl)phenyl)-8-((3-methoxy-phenyl)amino)-2-(oxetane-3-carbonyl)-2,6-diazaspiro [3.4]octan-7-one]
22 | 250 to 3000 | COc1cccc(NC2C(=O)N(c3ccc(-c4cn[nH]c4)cc3)CC23CN(C(=O)C(C)(C)O)C3)c1 (stereo not drawn) [Example 246, 6-(4-(1H-pyrazol-4-yl)phenyl)-2-(2-hydroxy-2-methylpro-panoyl)-8-((3-methoxy-phenyl)amino)-2,6-diazaspiro [3.4]octan-7-one]
23 | 250 to 3000 | COc1cccc(NC2C(=O)N(c3ccc(-c4cn[nH]c4)cc3)CC23CN(CC(F)F)C3)c1 (stereo not drawn) [Example 247, 6-(4-(1H-pyrazol-4-yl)phenyl)-2-(2,2-difluoroethyl)-8-((3-methoxy-phenyl)amino)-2,6-diazaspiro [3.4]octan-7-one]
24 | 250 to 3000 | COC(=O)N1CC2(C1)CN(c1ccc(-c3cn[nH]c3)cc1)C(=O)C2Nc1cccc(OC)c1 (stereo not drawn) [Example 248, methyl 6-(4-(1H-pyrazol-4-yl)phenyl)-8-((3-methoxy-phenyl)amino)-7-oxo-2,6-diazaspiro [3.4]octane-2-carboxylate]
25 | 250 to 3000 | COc1cccc(NC2C(=O)N(c3ccc(-c4cn[nH]c4)cc3)CC23CCN(C(C)=O)CC3)c1 (stereo not drawn) [Example 249, -(4-(1H-pyrazol-4-yl)phenyl)-8-acetyl-4-((3-methoxy-phenyl)amino)-2,8-diazaspiro [4.5]decan-3-one]
26 | 250 to 3000 | COc1cccc(NC2C(=O)N(c3ccc(-c4cn[nH]c4)cc3)CC23CCN(C(=O)CO)CC3)c1 (stereo not drawn) [Example 250, 2-(4-(1H-pyrazol-4-yl)phenyl)-8-(2-hydroxy-acetyl)-4-((3-methoxy-phenyl)amino)-2,8-diazaspiro [4.5]decan-3-one]
27 | 250 to 3000 | COC(=O)N1CCC2(CC1)CN(c1ccc(-c3cn[nH]c3)cc1)C(=O)C2Nc1cccc(OC)c1 (stereo not drawn) [Example 251, methyl 2-(4-(1H-pyrazol-4-yl)phenyl)-4-((3-methoxy-phenyl)amino)-3-oxo-2,8-diazaspiro [4.5]decane-8-carboxylate]
28 | 250 to 3000 | COc1cccc(NC2C(=O)N(c3ccc(-c4cn[nH]c4)cc3)CC23CCN(CCO)CC3)c1 (stereo not drawn) [Example 252, 2-(4-(1H-pyrazol-4-yl)phenyl)-8-(2-hydroxy-ethyl)-4-((3-methoxy-phenyl)amino)-2,8-diazaspiro [4.5]decan-3-one]
29 | 250 to 3000 | COc1cccc(NC2C(=O)N(c3ccc(-c4cn[nH]c4)cc3)CC23CCN(CC(C)(C)O)CC3)c1 (stereo not drawn) [Example 253, 2-(4-(1H-pyrazol-4-yl)phenyl)-8-(2-hydroxy-2-methylpropyl)-4-((3-methoxy-phenyl)amino)-2,8-diazaspiro [4.5]decan-3-one]
30 | 250 to 3000 | COc1cccc(NC2C(=O)N(c3ccc(-c4cn[nH]c4)cn3)CC23CCN(C(=O)CC(C)c2ccccc2)CC3)c1 (stereo not drawn) [Example 254, 2-(5-(1H-pyrazol-4-yl)pyridin-2-yl)-4-((3-methoxy-phenyl)amino)-8-(3-phenyl-butanoyl)-2,8-diazaspiro [4.5]decan-3-one]
